EP1510211A1, “Pharmaceutical composition comprising N-retinyl-N-retinylidene Ethanolamine (A2E), isoforms of A2E or derivatives thereof” (Lynkeus Biotech GmbH, priority 2003, dated 2005)

What was measured:
ARPE-19 cells = experiment: Apoptosis by Cell Death ELISA Plus Kit in ARPE-19 cells; assay type: cell-based, human
Protocol: (§1) RPE, ARPE-19, and MDCK-F1 cells are exposed to both PG (0, 10, 50 µg/ml) and A2E (0, 15 or 20 µM) for 4 hrs. […] RPE, ARPE-19, and MDCK-F1 cells are exposed to both PG (0, 10, 50 µg/ml) and iso-A2E (0, 15 or 20 µM) under the influence of light for 4 hrs. Then they are washed 3 times with PBS and the apoptosis is determined by Cell Death ELISA Plus Kit (Roche, Mannheim, Germany)
(§2) As an example, the apoptotic effect of A2E on porcine primary retinal pigment epithelial cells (RPE), and the cell lines ARPE-19 and MDCK-F1 cells is analyzed. • Example 1 describes the apoptotic effect of A2E on RPE, ARPE-19, and MDCK-F1 cells. The cells are exposed to 0, 15 and 30 µM of A2E for 2, 4, 6 and 22 hrs. […] Then they are washed 3 times with PBS and the apoptosis is determined by Cell Death ELISA Plus Kit (Roche, Mannheim, Germany). • Example 3 describes the apoptotic effect of A2E on RPE, ARPE-19, and MDCK-F1 cells after application of iso-A2E and exposure in light (photo-isomerization). […] Then they are washed 3 times with PBS and the apoptosis is determined by Cell Death ELISA Plus Kit (Roche, Mannheim, Germany) (see figure 4).
(§3) RPE and ARPE-19 cells: Primary porcine retinal pigment epithelial cells were isolated as previously described. […] Detection of apoptosis: Apoptosis was detected by Cell Death ELISA Plus Kit (Roche, Mannheim, Germany). […]

MDCK-F1 cells = experiment: Apoptosis by Cell Death ELISA Plus Kit in MDCK-F1 cells; assay type: cell-based, canine
Protocol: as §1, §2, §3

[1] = system: porcine primary retinal pigment epithelial cells (RPE); experiment: Apoptosis by Cell Death ELISA Plus Kit in primary RPE cells; assay type: cell-based
Protocol: as §1, §2, §3

[2] = PG (0, 10, 50 µg/ml) together with A2E (0, 15 or 20 µM) for 4 hrs, Figure 3
[3] = PG (0, 10, 50 µg/ml) together with iso-A2E (0, 15 or 20 µM) under the influence of light for 4 hrs, Figure 4

L-A-Phosphatidyl-DL-Glycerol sodium [PG]
protective effect: protective effect regarding the apoptotic effect of A2E (ARPE-19 cells; [2]) | protective effect regarding the apoptotic effect of photo-isomerization of iso-A2E (ARPE-19 cells; [3]) | protective effect regarding the apoptotic effect of A2E (MDCK-F1 cells; [2]) | protective effect regarding the apoptotic effect of photo-isomerization of iso-A2E (MDCK-F1 cells; [3]) | protective effect regarding the apoptotic effect of A2E [1, 2] | protective effect regarding the apoptotic effect of photo-isomerization of iso-A2E [1, 3]
